Measurements published in publication PMC4814829, “Design, synthesis, crystallization and biological evaluation of new symmetrical biscationic compounds as selective inhibitors of human Choline Kinase α1 (ChoKα1)” (Scientific Reports, 2016).
Read-outs that look alike come from different tables or passages of the source.

Experiments:
[1] = target: T1, human ChoKα1 (Homo sapiens, UniProt P35790); assay: Tryptophan fluorescence quenching; assay type: binding; conditions: mean ± S.D. of at least three independent experiments; 25 °C, enzyme 1 μM; read-out: HsChoKα1 Kd
T1 construct: made in house
Protocol: All compounds were prepared in 100% DMSO. Their Kds against human ChoKα1 were measured by monitoring the quenching of tryptophan fluorescence. All experiments were performed in a Cary Eclipse spectrofluorometer (Varian) at 25 °C with the enzymes at 1 μM, and concentrations of compounds varying from 0.1 to 5 μM for ChoKα1 in 25 mM Tris, 150 mM NaCl, pH 7.5. Fluorescence emission spectra were recorded in the 300–400 nm range with an excitation wavelength of 280 nm, with slit width of 5 nm. Controls were determined by incubating the enzymes with equivalent amounts of DMSO. As indicated previously, data analysis was performed in Prism (GraphPad software) considering a model with a single binding site (Eq. 1), where F0 is the intrinsic fluorescence of the enzyme in the absence of quencher (Q), F1 is the observed fluorescence at a given quencher concentration, fa is the fractional degree of fluorescence, and Kd is the dissociation constant.

[2] = tested on: PBL (+Pha); assay: Antiproliferative assay in non-tumoral cells (MTT); assay type: cell-based; conditions: Homo sapiens, non-tumoral cells stimulated with phytohematoagglutinin, 72 h, mean ± SEM
Protocol: (§1) Peripheral mononuclear cells (PBMC) from healthy donors were obtained by separation on Lymphoprep (Fresenius KABI Norge AS) gradient. After extensive washing, cells were resuspended (1 × 10^6 cells/mL) in RPMI-1640 with 10% fetal bovine serum and incubated overnight. For cytotoxicity evaluations in proliferating PBL cultures, non-adherent cells were resuspended at 5 × 10^5 cells/mL in growth medium, containing 2.5 μg/mL PHA (Irvine Scientific). Different concentrations of the test compounds were added, and viability was determined 72 h later by the MTT test. For cytotoxicity evaluations in resting PBL cultures, non-adherent cells were resuspended (5 × 10^5 cells/mL) and treated for 72 h with the test compounds, as described above.

[3] = tested on: PBL (resting); assay: Antiproliferative assay in non-tumoral cells (MTT); assay type: cell-based; conditions: Homo sapiens, 72 h, mean ± SEM
Protocol: as §1

[4] = tested on: panel of nine different human tumor-cell lines; assay: Antiproliferative activity against the panel of nine human tumor-cell lines; assay type: cell-based; conditions: for GI50: Homo sapiens, range or bound over all tested cell lines, read-out: GI50 across the tumor-cell line panel
Protocol: (§2) Human T-cell leukemia (Jurkat), human B-cell leukemia (RS 4,11) and human promyelocytic leukemia (HL-60) cells were grown in RPMI-1640 medium (Gibco, Milan, Italy). Breast adenocarcinoma (MCF-7 and MDA-MB-231), human non-small cell lung carcinoma (A549), human cervix carcinoma (HeLa), human prostate adenocarcinoma (PC-3), and human colon adenocarcinoma (HT-29) cells were grown in DMEM medium (Gibco, Milan, Italy). Both media were supplemented with 115 units/mL of penicillin G (Gibco, Milan, Italy), 115 μg/mL of streptomycin (Invitrogen, Milan, Italy) and 10% fetal bovine serum (Invitrogen, Milan, Italy). Stock solutions (10 mM) of the different compounds were obtained by dissolving them in DMSO. Individual wells of 96-well tissue-culture microtiter plates were inoculated with 100 μL of complete medium containing 8 × 10^3 cells. The plates were incubated at 37 °C in a humidified 5% CO2 incubator for 18 h prior to the experiments. After medium removal, 100 μL of fresh medium containing the test compound at different concentrations was added to each well and incubated at 37 °C for 72 h. The percentage of DMSO in the medium in no case exceeded 0.25%.

[5] = tested on: A549 cells; assay: Antiproliferative MTT assay; assay type: cell-based; conditions: Homo sapiens, 72 h, mean ± SEM
Protocol: as §2

[6] = tested on: HT-29 cells; assay: Antiproliferative MTT assay; assay type: cell-based; conditions: Homo sapiens, 72 h, mean ± SEM
Protocol: as §2

[7] = tested on: HeLa cells; assay: Antiproliferative MTT assay; assay type: cell-based; conditions: Homo sapiens, 72 h, mean ± SEM
Protocol: as §2

[8] = tested on: MCF-7 cells; assay: Antiproliferative MTT assay; assay type: cell-based; conditions: Homo sapiens, MCF7, 72 h, mean ± SEM
Protocol: as §2

[9] = tested on: RS4,11 cells; assay: Antiproliferative MTT assay; assay type: cell-based; conditions: Homo sapiens, 72 h, mean ± SEM
Protocol: as §2

[10] = tested on: MDA-MB-231 cells; assay: Antiproliferative MTT assay; assay type: cell-based; conditions: Homo sapiens, 72 h, mean ± SEM
Protocol: as §2

[11] = tested on: PC-3 cells; assay: Antiproliferative MTT assay; assay type: cell-based; conditions: Homo sapiens, 72 h, mean ± SEM
Protocol: as §2

[12] = tested on: HL-60 cells; assay: Antiproliferative MTT assay; assay type: cell-based; conditions: Homo sapiens, 72 h, mean ± SEM
Protocol: as §2

[13] = tested on: Jurkat cells; assay: Antiproliferative MTT assay; assay type: cell-based; conditions: Homo sapiens, 72 h, mean ± SEM
Protocol: as §2

[14] = tested on: Human fibroblasts; assay: Antiproliferative assay in non-tumoral cells; assay type: cell-based; conditions: Fibroblast, mean ± SEM
Source text: Human fibroblasts from foreskin were isolated as previously described[58] and maintained in DMEM medium with 10% fetal bovine serum added.

[15] = target: purified human ChoKα1 (Homo sapiens, UniProt P35790); assay: Determination of human choline kinase α1 activity ([methyl-14C]choline incorporation into phosphocholine); assay type: biochemical
Protocol: The effect of the different inhibitors on human choline kinase (ChoK) was assayed in ChoKα1 purified as previously described[32]. In each experiment DMSO-assays were always run in parallel as a control. DMSO in no case exceeded a concentration of 0.1% in order to avoid unspecific ChoK inhibition. ChoK activity was assayed by measuring the rate of incorporation of ^14C from [methyl-^14C]choline into phosphocholine both in the presence or absence of different inhibitor concentrations. Briefly, the final reaction mixture contained 100 mM Tris (pH 8.5), 10 mM MgCl2, and 10 mM ATP, and 20 ng of purified ChoKα1. […] The assay was stopped by immersing the reaction tubes in boiling water for 3 min. Aliquots of the reaction mixture were applied to the origin of Silica Gel plates in the presence of phosphocholine (0.1 mg) and choline (0.1 mg) as carriers. The chromatography was developed in methanol/0.6% NaCl/28% NH4OH in water (50:50:5, v/v/v) as solvent. Phosphocholine was visualized under exposure to iodine vapor and the corresponding spot was scraped and transferred to scintillation vials for measurement of radioactivity by a Beckman 6000-TA (Madrid, Spain) liquid-scintillation counter. At least three experiments were performed in all assays.

[16] = tested on: HUVEC; assay: Antiproliferative assay in non-tumoral cells; assay type: cell-based; conditions: Homo sapiens, mean ± SEM
Protocol: Human Umbilical Vein Endothelial cells (HUVEC), were prepared from human umbilical-cord veins, as previously described. The adherent cells were maintained in M200 medium added by LSGS (low serum growth supplement), containing FBS, hydrocortisone, hEGF, bFGF, heparin, gentamycin/amphotericin (Life Technologies, Monza, Italy). Once confluent, the cells were detached by trypsin–EDTA solution and used in experiments from the first to sixth passages.

[17] = mean ± SEM, three independent experiments, read-out: IC50 ChoKα1 purified

T1 sequence (P35790 whole entry): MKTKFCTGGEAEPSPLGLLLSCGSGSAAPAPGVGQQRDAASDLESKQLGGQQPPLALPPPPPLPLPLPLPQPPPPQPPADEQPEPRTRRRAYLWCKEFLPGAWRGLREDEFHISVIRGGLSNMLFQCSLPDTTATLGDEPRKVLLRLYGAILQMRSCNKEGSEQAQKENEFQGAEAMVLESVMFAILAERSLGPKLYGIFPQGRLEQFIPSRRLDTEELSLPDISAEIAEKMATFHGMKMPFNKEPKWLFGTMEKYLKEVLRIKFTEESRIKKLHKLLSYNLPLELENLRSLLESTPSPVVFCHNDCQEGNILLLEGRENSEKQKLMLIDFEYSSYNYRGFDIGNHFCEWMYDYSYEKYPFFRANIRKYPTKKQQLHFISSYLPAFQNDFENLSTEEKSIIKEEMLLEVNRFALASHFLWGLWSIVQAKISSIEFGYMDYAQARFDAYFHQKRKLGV
purified human ChoKα1, sequence (P35790 whole entry): as above

SMILES	Kd [1] [nM]	GI50 [5] [nM]	GI50 [6] [nM]	GI50 [7] [nM]	GI50 [8] [nM]	GI50 [9] [nM]	GI50 [10] [nM]	GI50 [11] [nM]	GI50 [12] [nM]	GI50 [13] [nM]	IC50 [15, 17] [nM]	GI50 [2] [nM]	GI50 [3] [nM]	GI50 [4] [nM]	GI50 [14] [nM]	Antiproliferative activity in all cell lines (in words) [4]	IC50 [15] [nM]	GI50 [16] [nM]
CN(C)c1cc[n+](Cc2ccc(CCCCc3ccc(C[n+]4ccc(N(C)c5ccc(Cl)cc5)cc4)cc3)cc2)cc1 [Compound 4, reference compound]	110 ± 10																	
c1cc(OCCOc2ccc(C[n+]3ccc(N4CCCC4)cc3)cc2)ccc1C[n+]1ccc(N2CCCC2)cc1 [Compound 10b, 1,1′-(((ethane-1,2-diylbis(oxy))bis(4,1-phenylene))bis(methylene))bis(4-(pyrrolidin-1-yl)pyridinium) bromide]		2300 ± 1100	4300 ± 420	82 ± 41	170 ± 32	1120 ± 220	90 ± 20	4500 ± 1100	42 ± 5	68 ± 16	9560 ± 1450	1880 ± 710	34800 ± 15600	42 to 4500	30500 ± 9600			
[Br-].[Br-].c1cc(OCCOc2ccc(C[N+]34CCC(CC3)CC4)cc2)ccc1C[N+]12CCC(CC1)CC2 [Compound 10d, 1,1′-(((ethane-1,2-diylbis(oxy))bis(4,1-phenylene))bis(methylene))bis(quinuclidinium) bromide]		61300 ± 16700	> 100000	16900 ± 2500	91400 ± 7600	37500 ± 4200	74300 ± 2600	94300 ± 12400	84100 ± 7400	> 100000				> 10000		total loss of activity	37500 ± 4450	
OC1C[N+]2(Cc3ccc(OCCOc4ccc(C[N+]56CCC(CC5)C(O)C6)cc4)cc3)CCC1CC2.[Br-].[Br-] (centres unmarked) [Compound 10e, 1,1′-(((ethane-1,2-diylbis(oxy))bis(4,1-phenylene))bis(methylene))bis(3-hydroxyquinuclidinium) bromide]		> 100000	94000 ± 4200	> 100000	50900 ± 11700	66000 ± 6600	63200 ± 3900	48000 ± 1100	> 100000	> 100000				> 10000		total loss of activity	9510 ± 1140	
C[N+]1(C)CCOC(O)(c2ccc(-c3ccc(C4(O)C[N+](C)(C)CCO4)cc3)cc2)C1 (centres unmarked) [HC-3, reference compound]	180 ± 30																	

More lines, main results first:

Kd [1] [nM]	GI50 [5] [nM]	GI50 [6] [nM]	GI50 [7] [nM]	GI50 [8] [nM]	GI50 [9] [nM]	GI50 [10] [nM]	GI50 [11] [nM]	GI50 [12] [nM]	GI50 [13] [nM]	IC50 [15, 17] [nM]	SMILES	GI50 [2] [nM]	GI50 [3] [nM]	GI50 [4] [nM]	GI50 [14] [nM]	Antiproliferative activity in all cell lines (in words) [4]	IC50 [15] [nM]	GI50 [16] [nM]
	4900 ± 700	4300 ± 1100	5600 ± 250	3500 ± 720	2700 ± 130	2200 ± 270	3100 ± 700	2100 ± 600	7300 ± 500	1630 ± 140	CN(c1ccc(Cl)cc1)c1cc[n+](Cc2ccc(OCCOc3ccc(C[n+]4ccc(N(C)c5ccc(Cl)cc5)cc4)cc3)cc2)cc1 [Compound 10c, 1,1′-(((ethane-1,2-diylbis(oxy))bis(4,1-phenylene))bis(methylene))bis(4-((4-chlorophenyl)(methyl)amino)pyridinium) bromide]			2100 to 7300				
295 ± 127	210 ± 60	120 ± 17	150 ± 31	170 ± 65	240 ± 50	1 ± 1	470 ± 120	63 ± 13	60 ± 2	6850 ± 810	CN(c1ccccc1)c1cc[n+](Cc2ccc(OCCOc3ccc(C[n+]4ccc(N(C)c5ccccc5)c5ccccc54)cc3)cc2)c2ccccc12 [Compound 10f, 1,1′-(((ethane-1,2-diylbis(oxy))bis(4,1-phenylene))bis(methylene))bis(4-(methyl(phenyl)amino)quinolinium) bromide]	100 ± 30	1400 ± 600		9800 ± 2500			
	180 ± 80	350 ± 70	320 ± 62	320 ± 40	26 ± 6	230 ± 40	850 ± 320	920 ± 60	310 ± 70	2790 ± 170	CN(c1ccccc1)c1cc[n+](Cc2ccc(OCCOc3ccc(C[n+]4ccc(N(C)c5ccccc5)c5ccc(Cl)cc54)cc3)cc2)c2cc(Cl)ccc12 [Compound 10h, 1,1′-(((ethane-1,2-diylbis(oxy))bis(4,1-phenylene))bis(methylene))bis(7-chloro-4-(methyl(phenyl)amino)quinolinium) bromide]	320 ± 30	1000 ± 420		3700 ± 430			16000 ± 6600
	290 ± 100	1000 ± 150	1500 ± 730	660 ± 70	500 ± 90	150 ± 50	720 ± 90	870 ± 280	760 ± 260	16200 ± 440	CN(c1ccc(Cl)cc1)c1cc[n+](Cc2ccc(OCCOc3ccc(C[n+]4ccc(N(C)c5ccc(Cl)cc5)c5ccc(Cl)cc54)cc3)cc2)c2cc(Cl)ccc12 [Compound 10i, 1,1′-(((ethane-1,2-diylbis(oxy))bis(4,1-phenylene))bis(methylene))bis(7-chloro-4-((4-chlorophenyl)(methyl)amino)quinolinium) bromide]							
	300 ± 68	150 ± 80	170 ± 84	110 ± 47	160 ± 12	10 ± 5	90 ± 40	420 ± 220	110 ± 26	1660 ± 90	c1ccc2c(c1)c(N1CCCCCC1)cc[n+]2Cc1ccc(OCCOc2ccc(C[n+]3ccc(N4CCCCCC4)c4ccccc43)cc2)cc1 [Compound 10j, 1,1′-(((ethane-1,2-diylbis(oxy))bis(4,1-phenylene))bis(methylene))bis(4-(azepan-1-yl)quinolinium) bromide]	95 ± 21	2000 ± 240		14300 ± 1200			
241 ± 30	520 ± 20	270 ± 50	260 ± 74	280 ± 90	36 ± 8	61 ± 3	110 ± 28	180 ± 60	72 ± 13	2020 ± 80	Clc1ccc2c(N3CCCCCC3)cc[n+](Cc3ccc(OCCOc4ccc(C[n+]5ccc(N6CCCCCC6)c6ccc(Cl)cc65)cc4)cc3)c2c1 [Compound 10k, 1,1′-(((ethane-1,2-diylbis(oxy))bis(4,1-phenylene))bis(methylene))bis(4-(azepan-1-yl)-7-chloroquinolinium) bromide]	34 ± 7	2100 ± 800		3200 ± 860			
